Patent US5747301A, “D-sorbitol dehydrogenase” (Roche Vitamins Inc., priority 1995, dated 1998)
Where a name gives a salt, the structure may show the parent alone. Read-outs that look alike come from different tables or passages of the source.

Key:
[1] = biological target: T1, D-sorbitol dehydrogenase (SLDH) (Gluconobacter thailandicus, UniProt Q8KIL1); experiment: Effects of metal ions and inhibitors on the SLDH activity; type: biochemical, Gluconobacter suboxydans IFO 3255; design: The SLDH was isolated from the membrane fraction of Gluconobacter suboxydans IFO 3255 (DSM 9715); made in house; host or cells: Gluconobacter suboxydans IFO 3255 (DSM 9715), native source (not recombinant): purified from the solubilized membrane fraction; details: for effect on SLDH activity: addition of 0.91 mM; for activity at 960 µM / activity at 1890 µM: read-out: Relative activity (%)
T1 sequence (Q8KIL1 30-740): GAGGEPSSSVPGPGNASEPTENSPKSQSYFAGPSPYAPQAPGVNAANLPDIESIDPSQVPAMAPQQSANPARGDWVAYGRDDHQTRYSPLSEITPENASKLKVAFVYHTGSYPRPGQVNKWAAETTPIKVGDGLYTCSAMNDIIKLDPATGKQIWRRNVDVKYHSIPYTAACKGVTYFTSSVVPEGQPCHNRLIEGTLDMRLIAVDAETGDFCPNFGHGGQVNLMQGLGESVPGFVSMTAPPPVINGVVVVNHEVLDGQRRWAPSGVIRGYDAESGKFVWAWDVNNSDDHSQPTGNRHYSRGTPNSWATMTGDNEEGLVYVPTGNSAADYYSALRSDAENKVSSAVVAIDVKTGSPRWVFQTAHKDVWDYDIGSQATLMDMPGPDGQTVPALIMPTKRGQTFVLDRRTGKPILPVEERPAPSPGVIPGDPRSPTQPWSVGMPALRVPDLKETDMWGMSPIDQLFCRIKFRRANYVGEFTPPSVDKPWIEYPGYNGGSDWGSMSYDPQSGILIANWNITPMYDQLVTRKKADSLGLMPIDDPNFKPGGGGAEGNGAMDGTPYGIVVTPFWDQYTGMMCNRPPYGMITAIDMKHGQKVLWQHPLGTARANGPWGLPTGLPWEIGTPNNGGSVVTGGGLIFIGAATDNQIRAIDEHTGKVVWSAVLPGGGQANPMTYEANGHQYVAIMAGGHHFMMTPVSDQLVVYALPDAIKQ

[2] = biological target: T1, D-sorbitol dehydrogenase (SLDH); experiment: Substrate specificity of the purified D-sorbitol dehydrogenase (DCIP reduction enzyme assay); type: biochemical, Gluconobacter suboxydans IFO 3255; design: The SLDH was isolated from the membrane fraction of Gluconobacter suboxydans IFO 3255 (DSM 9715); made in house; host or cells: Gluconobacter suboxydans IFO 3255 (DSM 9715), native source (not recombinant): purified from the solubilized membrane fraction; details: for activity at 100000 µM: read-out: Relative activity
[3] = system: membrane-bound D-sorbitol dehydrogenase; details: Shinagawa et al. enzyme; cited from earlier work
[4] = biological target: T1, D-sorbitol dehydrogenase (SLDH); details: conversion of D-sorbitol to L-sorbose
[5] = substrate: OC[C@@H](O)[C@@H](O)[C@H](O)[C@@H](O)CO; experiment: Effects of substrate concentration on reaction rate (Km); type: biochemical, Gluconobacter suboxydans IFO 3255; details: other: D-sorbitol 0.5 to 80 mM; DCIP as electron acceptor
Protocol: The velocity of the oxidizing reaction on varying the concentration of D-sorbitol from 0.5 to 80 mM was measured to determine the Km value for D-sorbitol. The apparent Michaelis constant was calculated to be 18 mM with DCIP as an electron acceptor for the reaction.

[6] = metal 0.91 mM, percentage of the reaction rate without metal compounds
[7] = metal 1.79 mM, percentage of the reaction rate without metal compounds
[8] = substrate solutions 100 mM, percent of the reaction rate obtained with D-sorbitol
[9] = inhibitor 0.96 mM, percentage of the reaction rate without inhibitors
[10] = inhibitor 1.89 mM, percentage of the reaction rate without inhibitors

O.O.O.O.O=[N+]([O-])[O-].O=[N+]([O-])[O-].[Ca+2] [Ca(NO3)2.4H2 O]
Relative activity (%) [1, 6]: 96%
Relative activity (%) [1, 7]: 96%

[Ca+2].[Cl-].[Cl-] [CaCl2]
Relative activity (%) [1, 6]: 96%
Relative activity (%) [1, 7]: 96%

O.O.O.O.O.O.[Cl-].[Cl-].[Co+2] [CoCl2.6H2 O]
Relative activity (%) [1, 6]: 117%
Relative activity (%) [1, 7]: 108%

O.O.O.O=[N+]([O-])[O-].O=[N+]([O-])[O-].[Cu+2] [Cu(NO3)2.3H2 O]
Relative activity (%) [1, 6]: 0%
Relative activity (%) [1, 7]: 0%

O.O.[Cl][Cu][Cl] [CuCl2.2H2 O]
Relative activity (%) [1, 6]: 0%
Relative activity (%) [1, 7]: 0%

O=S(=O)([O-])[O-].[Cu+2] [CuSO4]
Relative activity (%) [1, 6]: 0%
Relative activity (%) [1, 7]: 0%

[Cu+2] [Cu^2+]
effect on SLDH activity [1]: strongly inhibitory

OC[C@@H](O)[C@@H](O)[C@@H](O)CO [D-Adonitol]
activity at 100000 µM [2, 8]: 66.6%

OC[C@@H](O)C(O)[C@H](O)CO [D-Arabitol]
oxidation by SLDH ([2]; substrate solutions 100 mM): highly oxidized
activity at 100000 µM [2, 8]: 175%
oxidation by the enzyme [3]: did not oxidize

O=C(CO)[C@@H](O)[C@H](O)[C@H](O)CO [D-Fructose]
activity at 100000 µM [2, 8]: 0%

OC[C@H]1OC(O)[C@H](O)[C@@H](O)[C@@H]1O (stereo partly drawn) [D-Glucose]
activity at 100000 µM [2]: 0%

OC[C@@H](O)[C@@H](O)[C@H](O)[C@H](O)CO [D-Mannitol]
activity at 100000 µM [2]: 49.9%
reaction rate relative to D-sorbitol [3]: 5%

OC[C@@H](O)[C@@H](O)[C@H](O)[C@@H](O)CO [D-Sorbitol]
activity at 100000 µM [2]: 100%
oxidation by SLDH ([2]; substrate solutions 100 mM): highly oxidized

OC[C@@H](O)[C@H](O)[C@@H](O)CO [D-Xylitol]
activity at 100000 µM [2, 8]: 0%

O=C(O)CN(CCN(CC(=O)O)CC(=O)O)CC(=O)O [EDTA]
activity at 960 µM [1]: 96.7%
activity at 1890 µM [1]: 100%

CCO [Ethanol]
activity at 100000 µM [2]: 0%

O=S(=O)([O-])[O-].O=S(=O)([O-])[O-].O=S(=O)([O-])[O-].[Fe+3].[Fe+3] [Fe2 (SO4)3.xH2 O]
Relative activity (%) [1, 6]: 0%
Relative activity (%) [1, 7]: 0%

[Fe+3] [Fe^3+]
effect on SLDH activity [1]: strongly inhibitory

OCC(O)CO [Glycerol]
oxidation by SLDH ([2]; substrate solutions 100 mM): highly oxidized
activity at 100000 µM [2, 8]: 117%

O=C(CO)[C@@H](O)[C@H](O)[C@@H](O)CO [L-Sorbose]
activity at 100000 µM [2, 8]: 0%

CO [Methanol]
activity at 100000 µM [2]: 0%

O.O.O.O.O.O.[Cl-].[Cl-].[Mg+2] [MgCl2.6H2 O]
Relative activity (%) [1, 6]: 88%
Relative activity (%) [1, 7]: 92%

O.O.O.O.[Cl][Mn][Cl] [MnCl2.4H2 O]
Relative activity (%) [1, 6]: 80%
Relative activity (%) [1, 7]: 88%

O=C(O)CI [Monoiodoacetate]
inhibitory by [1]: 75%
activity at 960 µM [1]: 75%
activity at 1890 µM [1]: 25%

CCN1C(=O)C=CC1=O [N-Ethylmaleimide]
activity at 960 µM [1, 9]: 117%
activity at 1890 µM [1]: 100%

O.O.O.O.O.O.O.O=[As]([O-])([O-])O.[Na+].[Na+] [Na2 HAsO4.7H2 O]
Relative activity (%) [1, 9]: 116.7%
Relative activity (%) [1, 10]: 120.0%

O.O.[Na+].[Na+].[O]=[Mo](=[O])([O-])[O-] [Na2 MoO4.2H2 O]
Relative activity (%) [1, 6]: 68%
Relative activity (%) [1, 7]: 96%

[N-]=[N+]=[N-].[Na+] [NaN3]
Relative activity (%) [1, 9]: 91.7%
Relative activity (%) [1, 10]: 112.5%

O.O.O.O.O.O.O=S(=O)([O-])[O-].[Ni+2] [NiSO4.6H2 O]
Relative activity (%) [1, 6]: 88%
Relative activity (%) [1, 7]: 108%

C=C[C@H]1CN2CC[C@H]1C[C@H]2[C@H](O)c1ccnc2ccc(OC)cc12 [Quinine-HCl, quinine hydrochloride]
activity at 960 µM [1, 9]: 79.2%
activity at 1890 µM [1, 10]: 75%
inhibitory by ([1]; inhibitors (Table 7)): 25%

[F-].[Na+] [Sodium fluoride]
Relative activity (%) [1, 9]: 100%
Relative activity (%) [1, 10]: 100%

O=C(O)CF [Sodium fluoroacetate]
activity at 960 µM [1]: 104%
activity at 1890 µM [1]: 108%

OC[C@H]1O[C@@](CO)(O[C@H]2O[C@H](CO)[C@@H](O)[C@H](O)[C@H]2O)[C@@H](O)[C@@H]1O [Sucrose]
activity at 100000 µM [2, 8]: 0%

[Cl][Ti]([Cl])([Cl])[Cl] [TiCl4]
Relative activity (%) [1, 6]: 96%
Relative activity (%) [1, 7]: 88%

[Cl-].[Cl-].[Zn+2] [ZnCl2]
Relative activity (%) [1, 6]: 56%
Relative activity (%) [1, 7]: 32%

O.O.O.O.O.O.O.O=S(=O)([O-])[O-].[Zn+2] [ZnSO4.7H2 O]
Relative activity (%) [1, 6]: 44%
Relative activity (%) [1, 7]: 40%

OC[C@@H](O)[C@@H](O)CO [meso-Erythritol]
oxidation by SLDH ([2]; substrate solutions 100 mM): highly oxidized
activity at 100000 µM [2, 8]: 172%
oxidation by the enzyme [3]: did not oxidize

O=O [oxygen]
use as electron acceptor [4]: does not utilize oxygen as an electron acceptor

MnSO4.4~6H2 O
Relative activity (%) [1, 6]: 88%
Relative activity (%) [1, 7]: 88%

B1: D-sorbitol dehydrogenase (SLDH) (Gluconobacter thailandicus) (protein)
chain: GAGGEPSSSVPGPGNASEPTENSPKSQSYFAGPSPYAPQAPGVNAANLPDIESIDPSQVPAMAPQQSANPARGDWVAYGRDDHQTRYSPLSEITPENASKLKVAFVYHTGSYPRPGQVNKWAAETTPIKVGDGLYTCSAMNDIIKLDPATGKQIWRRNVDVKYHSIPYTAACKGVTYFTSSVVPEGQPCHNRLIEGTLDMRLIAVDAETGDFCPNFGHGGQVNLMQGLGESVPGFVSMTAPPPVINGVVVVNHEVLDGQRRWAPSGVIRGYDAESGKFVWAWDVNNSDDHSQPTGNRHYSRGTPNSWATMTGDNEEGLVYVPTGNSAADYYSALRSDAENKVSSAVVAIDVKTGSPRWVFQTAHKDVWDYDIGSQATLMDMPGPDGQTVPALIMPTKRGQTFVLDRRTGKPILPVEERPAPSPGVIPGDPRSPTQPWSVGMPALRVPDLKETDMWGMSPIDQLFCRIKFRRANYVGEFTPPSVDKPWIEYPGYNGGSDWGSMSYDPQSGILIANWNITPMYDQLVTRKKADSLGLMPIDDPNFKPGGGGAEGNGAMDGTPYGIVVTPFWDQYTGMMCNRPPYGMITAIDMKHGQKVLWQHPLGTARANGPWGLPTGLPWEIGTPNNGGSVVTGGGLIFIGAATDNQIRAIDEHTGKVVWSAVLPGGGQANPMTYEANGHQYVAIMAGGHHFMMTPVSDQLVVYALPDAIKQ
notes: The SLDH was isolated from the membrane fraction of Gluconobacter suboxydans IFO 3255 (DSM 9715); made in house; host or cells: Gluconobacter suboxydans IFO 3255 (DSM 9715), native source (not recombinant): purified from the solubilized membrane fraction
Km [5]: 18 mM
